Active and inactive are the calls of the source.
Legend:
[1] = cells; type: functional, cell-based
[2] = cells; type: functional, cell-based; remark: listed apart in the source
[3] = target: Voltage-dependent T-type calcium channel subunit alpha-1H (Homo sapiens, UniProt O95180); type: functional;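 further: channel activity triggered by adding a high calcium stimulation buffer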
[4] = target: Nonstructural protein 1 (Influenza A virus, UniProt Q194T2); type: functional, Influenza A virus (A/California/07/2009(H1N1))
Sequence of Nonstructural protein 1 (Q194T2 whole entry, the tested form may be a part): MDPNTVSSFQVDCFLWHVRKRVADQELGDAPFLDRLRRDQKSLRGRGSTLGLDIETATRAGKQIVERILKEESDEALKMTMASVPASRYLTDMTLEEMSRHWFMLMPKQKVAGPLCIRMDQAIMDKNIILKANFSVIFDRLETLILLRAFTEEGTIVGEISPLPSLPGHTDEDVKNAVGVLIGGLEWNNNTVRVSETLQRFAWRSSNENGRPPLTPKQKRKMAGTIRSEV

[5] = target: T1, Carboxy-terminal domain RNA polymerase II polypeptide A small phosphatase 1 (Homo sapiens, UniProt Q9GZU7); test: inhibitors of CTDSP1, concentration-response testing, biochemical assay, absorbance-based, actives from ultra-high-throughput screening (AID 540297); type: functional
T1 sequence (Q9GZU7 whole entry): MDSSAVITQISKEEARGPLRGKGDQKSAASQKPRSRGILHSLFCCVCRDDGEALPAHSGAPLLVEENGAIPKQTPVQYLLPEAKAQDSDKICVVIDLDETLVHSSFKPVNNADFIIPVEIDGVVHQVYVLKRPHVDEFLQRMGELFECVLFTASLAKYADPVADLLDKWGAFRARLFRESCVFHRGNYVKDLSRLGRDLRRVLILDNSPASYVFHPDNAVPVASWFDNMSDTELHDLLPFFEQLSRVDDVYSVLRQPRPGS

[6] = target: T2, Corticotropin-releasing factor receptor 2/Corticotropin-releasing factor-binding protein (Homo sapiens, UniProt P24387+Q13324); test: activators of CRF receptor 2 with binding protein – uHTS hits, confirmation (AID 602473); type: functional; details: read-out: EC50_Mean
T2 sequence (Q13324 whole entry): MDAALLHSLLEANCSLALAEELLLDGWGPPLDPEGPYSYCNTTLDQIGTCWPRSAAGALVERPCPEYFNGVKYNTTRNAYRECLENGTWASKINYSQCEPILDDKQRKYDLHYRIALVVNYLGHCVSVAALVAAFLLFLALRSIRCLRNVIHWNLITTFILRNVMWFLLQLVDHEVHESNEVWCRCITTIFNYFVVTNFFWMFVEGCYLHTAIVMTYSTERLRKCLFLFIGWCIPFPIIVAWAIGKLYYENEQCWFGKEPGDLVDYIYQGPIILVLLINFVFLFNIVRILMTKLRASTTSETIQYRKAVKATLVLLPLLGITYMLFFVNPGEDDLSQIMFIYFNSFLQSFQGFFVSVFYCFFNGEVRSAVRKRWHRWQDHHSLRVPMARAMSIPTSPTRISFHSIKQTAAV
T2 sequence (P24387 whole entry): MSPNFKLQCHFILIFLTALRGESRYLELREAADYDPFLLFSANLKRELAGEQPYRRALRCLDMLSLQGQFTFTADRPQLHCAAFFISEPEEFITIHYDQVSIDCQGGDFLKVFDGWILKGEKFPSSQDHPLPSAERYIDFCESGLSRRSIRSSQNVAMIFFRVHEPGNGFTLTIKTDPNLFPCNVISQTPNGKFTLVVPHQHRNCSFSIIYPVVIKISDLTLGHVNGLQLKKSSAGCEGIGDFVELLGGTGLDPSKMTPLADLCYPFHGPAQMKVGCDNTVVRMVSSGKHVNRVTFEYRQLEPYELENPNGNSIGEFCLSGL

[7] = target: T2, Corticotropin-releasing factor receptor 2/Corticotropin-releasing factor-binding protein; test: Dose Response confirmation of uHTS hits for small molecule antagonists of the CRF-binding protein and CRF-R2 receptor complex.; type: functional; details: read-out: IC50_Mean
[8] = NIH:OVCAR-3 ovarian cancer cell cytotoxicity, dose response, PAX8 inhibitor project, plate reader, dry powder samples (AID 743044); type: functional, cell-based
[9] = target: Paired box protein Pax-8 (Homo sapiens, UniProt Q06710); test: inhibitors of PAX8-driven TPO luciferase reporter, dose response, RMG-I cells, cherry-pick (AID 687027); type: functional, cell-based;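 further: luciferase reporter driven by Pax8 target thyroperoxidase promoter measured by SteadyGlo luminescence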
Sequence of Paired box protein Pax-8 (Q06710 whole entry): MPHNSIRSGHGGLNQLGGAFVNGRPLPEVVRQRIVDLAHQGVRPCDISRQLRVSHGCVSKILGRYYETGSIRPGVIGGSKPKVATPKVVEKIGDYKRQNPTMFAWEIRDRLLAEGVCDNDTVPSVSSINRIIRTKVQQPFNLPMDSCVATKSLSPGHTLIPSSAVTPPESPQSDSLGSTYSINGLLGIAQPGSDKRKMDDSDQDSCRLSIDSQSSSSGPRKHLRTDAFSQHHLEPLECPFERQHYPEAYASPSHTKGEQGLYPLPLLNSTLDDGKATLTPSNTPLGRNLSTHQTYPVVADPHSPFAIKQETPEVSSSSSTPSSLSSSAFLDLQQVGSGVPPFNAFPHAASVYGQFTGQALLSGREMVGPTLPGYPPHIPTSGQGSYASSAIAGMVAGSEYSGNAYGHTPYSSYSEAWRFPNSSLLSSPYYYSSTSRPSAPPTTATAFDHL

[10] = cytotoxicity in OVCAR8 ovarian cancer cells, dose response, PAX8 project, cell-based, plate reader, dry powder samples (AID 743197); type: functional; details: OVCAR-8
[11] = cytotoxicity toward NIH3T3 fibroblasts, dose response, counter-screen, cell-based, ATP luminescence, mouse fibroblasts (AID 2010); type: functional;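 further: cells exposed to compound for about 90 hours before reading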
[12] = inhibitors of intracellular T. cruzi replication, confirmation, NIH3T3 host cells, beta-gal luminescence (AID 2044); type: functional, cell-based;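 further: intracellular parasites grown in NIH/3T3 mouse fibroblasts as host cells; luminescent beta-galactosidase reporter signal from transgenic T. cruzi replicating inside host cells; inhibitors lower the luminescence signal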
[13] = target: T3, Leucine aminopeptidase (Plasmodium falciparum 3D7, UniProt Q8IL11); test: P. falciparum M17LAP inhibitors, primary screen, biochemical, fluorogenic H-Leu-NHMec substrate, 1536-well (AID 1619); type: functional
T3 sequence (Q8IL11 whole entry): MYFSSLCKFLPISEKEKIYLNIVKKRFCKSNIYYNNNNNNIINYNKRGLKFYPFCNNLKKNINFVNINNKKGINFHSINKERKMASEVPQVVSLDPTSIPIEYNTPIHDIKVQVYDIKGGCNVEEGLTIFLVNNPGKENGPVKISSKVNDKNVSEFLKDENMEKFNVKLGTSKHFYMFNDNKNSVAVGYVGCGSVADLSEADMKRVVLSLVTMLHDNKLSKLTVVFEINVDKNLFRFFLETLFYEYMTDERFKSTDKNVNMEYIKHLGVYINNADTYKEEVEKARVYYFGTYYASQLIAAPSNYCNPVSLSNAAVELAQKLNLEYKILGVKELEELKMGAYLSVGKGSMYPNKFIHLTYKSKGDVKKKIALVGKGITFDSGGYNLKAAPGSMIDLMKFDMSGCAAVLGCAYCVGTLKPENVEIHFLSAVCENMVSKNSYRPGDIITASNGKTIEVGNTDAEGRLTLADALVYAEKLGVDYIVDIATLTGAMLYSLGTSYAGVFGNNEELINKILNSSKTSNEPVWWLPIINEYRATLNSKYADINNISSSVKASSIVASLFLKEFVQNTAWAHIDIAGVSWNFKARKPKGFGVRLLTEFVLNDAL

[14] = target: Dual specificity tyrosine-phosphorylation-regulated kinase 1A (Rattus norvegicus, UniProt Q63470); type: biochemical, Homo sapiens
[15] = target: Induced myeloid leukemia cell differentiation protein Mcl-1 (Homo sapiens, UniProt Q07820); type: functional
Sequence of Induced myeloid leukemia cell differentiation protein Mcl-1 (Q07820 whole entry): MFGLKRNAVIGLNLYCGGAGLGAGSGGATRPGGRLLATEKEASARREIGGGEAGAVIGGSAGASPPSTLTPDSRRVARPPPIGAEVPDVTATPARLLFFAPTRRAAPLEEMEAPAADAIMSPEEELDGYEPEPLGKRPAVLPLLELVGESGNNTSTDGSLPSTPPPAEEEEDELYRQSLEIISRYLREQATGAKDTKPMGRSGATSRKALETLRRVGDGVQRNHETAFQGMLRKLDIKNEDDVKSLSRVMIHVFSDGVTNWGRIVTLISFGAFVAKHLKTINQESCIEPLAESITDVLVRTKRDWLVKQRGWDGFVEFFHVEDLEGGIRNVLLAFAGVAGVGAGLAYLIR

[16] = tested on: H4; test: Luminescence Cell-Based Dose Response HTS to Identify Activators of 5'UTR Stem-Loop Driven Prion Protein mRNA Translation in H4 Neuroglioblastoma Cells. [Related pubchem assays: 1829 (Project Summary), 1814 (Primary HTS)]; type: functional; details: Homo sapiens
[17] = Luminescence Cell-Based Dose Confirmation HTS to Identify Activators of 5'UTR Stem-Loop Driven Alpha-Synuclein mRNA Translation in H4 Neuroglioblastoma Cells. [Related pubchem assays: 1829 (Project Summary), 1814 (Primary HTS)]; type: functional
[18] = Luminescence Cell-Based Dose Response HTS to Identify Activators of Luciferase Translation or Activity in H4 […] Cells. [Related pubchem assays: 1829 (Project Summary), 1814 (Primary HTS)]; type: functional
[19] = target: FAD-linked sulfhydryl oxidase ALR (Homo sapiens, UniProt P55789); test: inhibitors of human ALR sulfhydryl oxidase, dose response, biochemical, H2O2 detection, luminescence, cherry-pick (AID 493248)
Sequence of FAD-linked sulfhydryl oxidase ALR (P55789 whole entry): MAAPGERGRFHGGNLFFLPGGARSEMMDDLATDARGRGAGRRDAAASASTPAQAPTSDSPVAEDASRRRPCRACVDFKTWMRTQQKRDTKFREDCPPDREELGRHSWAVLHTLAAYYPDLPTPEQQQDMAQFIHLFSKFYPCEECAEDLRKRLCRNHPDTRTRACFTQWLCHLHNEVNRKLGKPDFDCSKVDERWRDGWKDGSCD

[20] = target: T4, Heat shock factor protein 1 (Mus musculus, UniProt P38532); test: inhibition of MG132-induced HSE-luciferase signal, confirmation, cell-based, NIH3T3, luminescence, dose retest (AID 2382); type: functional;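 further: NIH3T3 fibroblasts with HSF1-driven luciferase reporter stressed by proteasome inhibitor MG132; luminescence from HSF1-driven luciferase expression after 8 hours of MG132 stress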
T4 sequence (P38532 whole entry): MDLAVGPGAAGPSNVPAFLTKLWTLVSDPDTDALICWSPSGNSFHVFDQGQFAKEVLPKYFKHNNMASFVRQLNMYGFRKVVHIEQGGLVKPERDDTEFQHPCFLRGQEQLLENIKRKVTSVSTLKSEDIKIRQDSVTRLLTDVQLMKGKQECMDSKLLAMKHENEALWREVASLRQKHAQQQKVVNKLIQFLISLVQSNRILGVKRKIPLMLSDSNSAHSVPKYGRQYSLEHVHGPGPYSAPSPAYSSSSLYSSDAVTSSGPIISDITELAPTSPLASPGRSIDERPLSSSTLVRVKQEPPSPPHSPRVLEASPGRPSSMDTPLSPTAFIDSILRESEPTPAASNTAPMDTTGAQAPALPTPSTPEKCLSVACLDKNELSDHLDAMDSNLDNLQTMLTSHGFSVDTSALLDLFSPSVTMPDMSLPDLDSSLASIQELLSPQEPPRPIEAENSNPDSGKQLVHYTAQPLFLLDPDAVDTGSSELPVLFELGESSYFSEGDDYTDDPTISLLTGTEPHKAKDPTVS

[21] = target: T5, Polyadenylate-binding protein 1 (Homo sapiens, UniProt P11940); test: PABP1 MLLE–PAM2 binding inhibitor potency, dose response, biochemical, fluorescence polarization, FITC-PAM2 peptide (AID 602259); type: functional; details: read-out: IC50_Mean
T5 sequence (P11940 whole entry): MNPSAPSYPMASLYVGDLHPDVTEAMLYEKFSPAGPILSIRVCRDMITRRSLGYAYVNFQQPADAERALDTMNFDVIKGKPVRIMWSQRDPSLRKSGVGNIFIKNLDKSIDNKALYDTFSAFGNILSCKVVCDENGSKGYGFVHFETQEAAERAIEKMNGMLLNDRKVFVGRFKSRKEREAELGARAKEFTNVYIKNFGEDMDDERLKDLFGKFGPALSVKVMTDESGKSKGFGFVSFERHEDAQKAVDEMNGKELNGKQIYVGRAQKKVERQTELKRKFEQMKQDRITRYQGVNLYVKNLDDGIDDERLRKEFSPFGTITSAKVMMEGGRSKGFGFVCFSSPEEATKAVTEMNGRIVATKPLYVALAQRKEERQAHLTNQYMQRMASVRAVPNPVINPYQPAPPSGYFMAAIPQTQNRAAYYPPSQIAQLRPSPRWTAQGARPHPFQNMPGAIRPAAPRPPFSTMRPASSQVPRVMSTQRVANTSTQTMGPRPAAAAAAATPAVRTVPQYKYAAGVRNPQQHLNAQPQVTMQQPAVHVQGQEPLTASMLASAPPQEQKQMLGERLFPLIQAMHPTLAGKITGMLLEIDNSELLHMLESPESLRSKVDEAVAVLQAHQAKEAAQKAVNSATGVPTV

[22] = target: T5, Polyadenylate-binding protein 1; test: PABP1 MLLE–PAM2 interaction inhibitors, dose response, miRNA deadenylation inhibitor project, biochemical, fluorescence polarization, Cy5-PAM2 peptide, secondary (AID 602260); type: functional; details: read-out: IC50_Mean

Sequence of Voltage-dependent T-type calcium channel subunit alpha-1H (O95180 whole entry): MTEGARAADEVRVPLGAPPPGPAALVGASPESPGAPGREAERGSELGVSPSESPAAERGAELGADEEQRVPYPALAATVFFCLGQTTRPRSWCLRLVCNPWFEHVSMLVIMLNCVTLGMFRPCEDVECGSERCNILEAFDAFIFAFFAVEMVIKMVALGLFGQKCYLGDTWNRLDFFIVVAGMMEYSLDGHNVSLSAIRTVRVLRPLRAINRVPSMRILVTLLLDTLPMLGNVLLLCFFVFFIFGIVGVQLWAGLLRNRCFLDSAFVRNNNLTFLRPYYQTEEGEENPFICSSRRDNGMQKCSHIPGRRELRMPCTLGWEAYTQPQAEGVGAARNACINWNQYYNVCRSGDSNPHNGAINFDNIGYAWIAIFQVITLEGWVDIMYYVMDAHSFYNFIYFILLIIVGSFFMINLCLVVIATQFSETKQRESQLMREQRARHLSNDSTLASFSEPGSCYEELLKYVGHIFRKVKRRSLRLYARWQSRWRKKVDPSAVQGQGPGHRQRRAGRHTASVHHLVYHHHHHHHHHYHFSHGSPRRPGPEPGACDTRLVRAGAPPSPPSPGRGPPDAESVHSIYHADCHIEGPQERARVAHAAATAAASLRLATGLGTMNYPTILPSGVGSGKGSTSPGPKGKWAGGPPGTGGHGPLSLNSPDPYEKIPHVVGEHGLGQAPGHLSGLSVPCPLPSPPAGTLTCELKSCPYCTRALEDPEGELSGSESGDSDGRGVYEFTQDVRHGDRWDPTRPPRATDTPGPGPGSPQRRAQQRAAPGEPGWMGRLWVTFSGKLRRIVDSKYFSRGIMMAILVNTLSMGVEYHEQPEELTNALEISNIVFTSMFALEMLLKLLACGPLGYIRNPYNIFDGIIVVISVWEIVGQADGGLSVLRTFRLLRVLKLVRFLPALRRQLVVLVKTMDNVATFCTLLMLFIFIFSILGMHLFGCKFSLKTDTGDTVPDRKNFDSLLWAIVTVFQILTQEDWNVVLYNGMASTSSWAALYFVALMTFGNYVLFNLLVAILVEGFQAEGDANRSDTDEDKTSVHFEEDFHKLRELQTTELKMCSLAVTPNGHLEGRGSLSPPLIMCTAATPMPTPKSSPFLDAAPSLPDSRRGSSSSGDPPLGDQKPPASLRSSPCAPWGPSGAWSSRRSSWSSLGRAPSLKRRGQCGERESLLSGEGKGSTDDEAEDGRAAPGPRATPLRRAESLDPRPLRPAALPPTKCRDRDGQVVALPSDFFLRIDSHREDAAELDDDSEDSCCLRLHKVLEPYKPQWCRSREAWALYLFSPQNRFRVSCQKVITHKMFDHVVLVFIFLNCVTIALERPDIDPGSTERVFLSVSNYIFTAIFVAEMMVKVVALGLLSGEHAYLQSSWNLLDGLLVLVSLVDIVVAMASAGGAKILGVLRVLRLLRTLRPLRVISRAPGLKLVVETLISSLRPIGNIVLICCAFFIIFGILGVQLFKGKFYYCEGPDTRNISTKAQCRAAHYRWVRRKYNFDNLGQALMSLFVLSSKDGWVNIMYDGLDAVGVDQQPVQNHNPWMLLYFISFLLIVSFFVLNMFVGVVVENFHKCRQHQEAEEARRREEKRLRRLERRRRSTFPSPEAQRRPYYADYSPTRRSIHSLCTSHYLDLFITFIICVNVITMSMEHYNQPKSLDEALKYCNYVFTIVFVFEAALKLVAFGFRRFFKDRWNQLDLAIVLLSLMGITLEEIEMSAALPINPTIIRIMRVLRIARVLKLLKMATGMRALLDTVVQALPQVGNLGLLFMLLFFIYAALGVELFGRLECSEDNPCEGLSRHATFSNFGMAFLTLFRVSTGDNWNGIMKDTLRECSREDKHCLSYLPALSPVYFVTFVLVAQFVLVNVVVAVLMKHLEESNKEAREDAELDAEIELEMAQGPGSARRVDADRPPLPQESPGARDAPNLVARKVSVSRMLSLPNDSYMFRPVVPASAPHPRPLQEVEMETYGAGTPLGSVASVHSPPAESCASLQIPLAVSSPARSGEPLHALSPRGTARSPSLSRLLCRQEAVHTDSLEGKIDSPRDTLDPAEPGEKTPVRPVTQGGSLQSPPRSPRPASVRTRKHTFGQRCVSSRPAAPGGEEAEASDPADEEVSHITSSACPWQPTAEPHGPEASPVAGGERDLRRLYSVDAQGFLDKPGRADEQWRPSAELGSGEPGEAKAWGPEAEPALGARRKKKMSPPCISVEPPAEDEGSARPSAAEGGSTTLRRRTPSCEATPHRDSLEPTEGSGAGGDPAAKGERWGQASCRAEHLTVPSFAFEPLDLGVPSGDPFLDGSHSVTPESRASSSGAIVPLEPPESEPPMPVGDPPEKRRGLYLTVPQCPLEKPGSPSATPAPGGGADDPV

FC(F)Oc1ccc(NC(S)=Nc2ccc3c[nH]nc3c2)cc1
EC50 [1]: > 350 µM (not active)
EC50 [2]: > 350 µM (not active)

Cn1cc(C(=O)c2ccc(Cl)cc2Cl)cc1C(=O)NN=C(N)COc1ccccc1
EC50 [3]: 3.97 µM (active)

CN(C)c1ccc(N=Nc2cccc(F)c2)cc1
IC50 [4]: 25 µM (active)

Cc1ccc(-c2cc(C(=O)Nc3cccnc3)c3ccccc3n2)o1
IC50 [5]: 9.9 µM (active)

COc1ccc(/C=C/C(=O)NCCSCc2ccco2)cc1OC
EC50 [1]: > 350 µM (not active)
EC50 [2]: > 350 µM (not active)
EC50 [6]: > 53 µM (inactive)
IC50 [7]: > 47.1 µM (inactive)

C[C@H]1CCCCO[C@@H](CN(C)Cc2ccc(C(F)(F)F)cc2)[C@@H](C)CN([C@@H](C)CO)C(=O)c2cc(NC(=O)Nc3ccc(F)cc3)ccc2O1
AC50 [8]: 66.3 µM (active)
AC50 [9]: 5.26 µM (active)
AC50 [10]: 56 µM (active)

CCC(C)(C)n1nnnc1C(c1ccncc1)N1CCC(Cc2ccccc2)CC1 (stereo not given)
EC50 [3]: 9.75 µM (active)
EC50 [11]: > 60 µM (not active)
EC50 [12]: 1.06 µM (active)

COc1cccc(N2CCN(C3CC(=O)N(c4ccc(Cl)c(Cl)c4)C3=O)CC2)c1 (stereo not given)
EC50 [3]: 6.84 µM (active)

O=C(O)c1ccc(CSc2nc3ccc(NC(=O)c4ccccc4C(=O)O)cc3s2)cc1
IC50 [5]: 6.66 µM (active)

Cc1cc(C(=O)O)ccc1-c1ccc(/C=C2\NC(=O)N(Cc3ccccc3Cl)C2=O)o1
IC50 [13]: 13.6 µM (active)
IC50 [5]: 7.71 µM (active)

COc1ccccc1OCC(=O)N/N=C/c1c(O)ccc2ccccc12
EC50 [1]: 10.8 µM (active)
EC50 [2]: > 350 µM (not active)

COc1ccc2nc(NC(=O)C3CCCN3S(=O)(=O)c3ccc(C)cc3)sc2c1 (stereo not given)
EC50 [3]: 57.5 µM (active)

CCCC[n+]1ccc(-c2nc3cc([N+](=O)[O-])ccc3[nH]2)cc1
AC50 [14]: 2.24 µM (active)

Cc1ccc(NC(=O)CSCC(=O)N2c3ccccc3CCc3ccccc32)cc1
EC50 [3]: 4.65 µM (active)

Cc1ccc(-c2cc(C(=O)N3CCCCCC3)no2)cc1
EC50 [1]: > 350 µM (not active)
EC50 [2]: 10.2 µM (active)

NC(=O)COc1ccc(/C=N\NC(=O)c2ccc(-c3ccccc3)cc2)cc1
IC50 [5]: 6.66 µM (active)

O=C(N/N=C/c1ccccc1O)C(=O)Nc1ccccn1
IC50 [4]: 10.8 µM (active)

CC1CCN(C(=O)CSCC(=O)Nc2nc(-c3cccs3)cs2)CC1
EC50 [3]: 2.23 µM (active)

C=CCOc1ccc(/C=C2\SC(Nc3cccnc3)=NC2=O)cc1
AC50 [14]: 2.93 µM (active)
EC50 [1]: > 350 µM (not active)
EC50 [2]: > 350 µM (not active)

COc1ccc(C(=O)n2nc(C)c(Br)c2C)cc1
IC50 [15]: 2.84 µM (not active)

Cc1c(NN=C2C(=O)NC(=O)NC2=O)c(=O)n(-c2ccccc2)n1C
IC50 [4]: 2.12 µM (active)

O=C(CSc1ccc(-c2ccccn2)nn1)c1ccccc1
EC50 [16]: 56.6 µM (active)
EC50 [17]: > 120 µM (not active)
IC50 [4]: 10.9 µM (active)
EC50 [18]: 8.47 µM (active)

Clc1ccc2[nH]c(COc3ccccc3)nc2c1
AC50 [14]: 6.23 µM (active)

CC(C)n1cc(/C=N/Nc2ccc(C(=O)O)cc2)c2ccccc21
AC50 [19]: 0.192 µM (active)
EC50 [20]: < 0.16 µM (active)

Cc1ccccc1CSCCNC(=O)CCSc1ccccc1
EC50 [3]: 3.24 µM (active)

O=C(Nc1cccc(-c2nc3cccnc3s2)c1)c1cccnc1Cl
AC50 [14]: 0.651 µM (active)

C[C@@H]1CN([C@@H](C)CO)C(=O)Cc2cc(NC(=O)Nc3ccc(C(F)(F)F)cc3)ccc2O[C@H]1CN(C)C(=O)NC1CCCCC1
AC50 [8]: 54 µM (active)
AC50 [9]: 8.4 µM (active)

CCCC1CCC(=C(C#N)C(N)=O)CC1 (stereo not given)
EC50 [1]: > 350 µM (not active)
EC50 [2]: 41.6 µM (active)

CC(=O)Nc1ccc(S(=O)(=O)NC(C)C(=O)NC(C)c2ccccc2)cc1 (stereo not given)
AC50 [19]: 0.083 µM (active)
IC50 [21]: > 66 µM (inactive)
IC50 [22]: > 66 µM (inactive)

— ChEMBL document CHEMBL1201862, “PubChem BioAssay data set” (2004)
